Source: EP4818330A1, “PHARMACEUTICAL PREPARATION FOR DIAGNOSING AND TREATING ALZHEIMER'S DISEASE” (Shanghai East Hospital Tongji University, priority 2023, dated 2025)

Key:
293T cell line = test: CCK8 cell viability (toxicity) assay in 293T cell line; assay type: cell-based; details: Homo sapiens, HEK-293T; CCK8 toxicity test, 293T cell line
From the text: (§1) The CCK8 cell viability assay (CCK8) was adopted. Its principle is mainly based on the reduction reaction of WST-8 (chemical name: 2-(2-methoxy-4-nitrophenyl)-3-(4-nitrophenyl)-5-(2,4-disulfophenyl)-2H-tetrazolium monosodium salt). In the presence of living cells, WST-8 can be reduced by dehydrogenases in mitochondria to generate a highly water-soluble orange-yellow formazan product. The color intensity is directly proportional to the number of living cells, wherein the quantity of living cells can be indirectly reflected by measuring the absorbance of formazan products (typically at a wavelength of 450 nm). The CCK-8 assay is widely used in cell proliferation assay, cytotoxicity assay and tumor drug sensitivity test.
In in vitro experiments, the compound stock solution was prepared into 10 mM with DMSO and diluted with a culture medium before use. The 293T cell line was used for preliminary concentration screening of the compound, wherein concentration gradients were set as follows: 5 µmol, 10 µmol, 20 µmol, 40 µmol, 80 µmol and 160 µmol. After the cells were treated with the compound for 24 h, the CCK8 detection kit was used, wherein the cell viability was calculated based on the absorbance values detected by a microplate reader. Data processing was performed using GraphPad Prism software to plot the IC50 curve.

primary neurons = test: CCK8 cell viability (toxicity) assay in primary neurons; assay type: cell-based, mouse; details: Mus musculus, Primary neuron, CCK8 toxicity test
From the text: as §1
Primary hippocampal neuron culture: After ICR fetal mice at 18-21 days of gestation (E18-E21) were anesthetized, the fetal mice were dissected in a clean area and immersed in 75% ethanol for 1-2 min. The mouse head was taken out, the surface skull was removed with micro-scissors, and the brain tissue was transferred to an anatomical dissociation solution. Under a microscope, blood vessels and meninges were removed, hippocampal tissue was isolated, the extracted hippocampal tissue was placed in a 3.5 cm dish containing the anatomical dissociation solution, and the hippocampal tissue was cut into small fragments using micro-scissors. The minced hippocampal tissue was transferred to a 7 ml EP tube using a pipette gun. The hippocampal tissue hereinabove was centrifuged at 1000 rpm for 3-5 min, and the anatomical separation solution was discarded. 0.5-1 ml of papain digestion solution was added to the EP tube hereinabove, and the EP tube was placed in a 37°C incubator for 30 min. 300 µL of Trituration buffer 300 (DNase) and 5 mL of complete medium were added, and the hippocampal tissue was gently pipetted more than 10 times. The cell suspension was allowed to stand for 3 min, and 3-4 ml of supernatant was gently aspirated into a 15 ml tube using a pipette. 3-4 ml of complete medium was added again, and the hippocampal tissue was gently pipetted more than 10 times. Step 8 was repeated, and 3-4 ml of supernatant was transferred to the same 15 ml tube again. The previous step was repeated again. The collected supernatant was centrifuged at 1000 rpm, the supernatant was discarded, and 5 ml of complete medium was added. The mixture was gently pipetted and suspended, and then centrifuged again at 1000 rpm for 5 min. The complete medium was added to resuspend the cells, and then a portion of the cells was aspirated for counting. Generally, when neuronal cells were planted in a 24-well plate, the concentration of the cell suspension was generally 2×10^5/ml, and 500 µl of cells is inoculated per well. The resuspended neuron cells with a diluted ratio were seeded onto a glass slide treated with PDL, then the glass slide was placed in a 37°C incubator for 10 min, an appropriate amount of complete medium was added, and then the culture is continued in the incubator.

O=C(NC1CN(c2ccncn2)CC1CO)c1ccc2ncccc2c1 (centres unmarked) [compound of Formula II, N-[4-(HYDROXYMETHYL)-1-(PYRIMIDIN-4-YL)PYRROLIDIN-3-YL]QUINOLINE-6-CARBOXAMIDE]
IC50 (293T cell line): 38.6 µM
IC50 (primary neurons): 1.67 µM
